The experiment has as its target T1, human NaV1.6 (hNaV1.6) (Homo sapiens, UniProt Q9UQD0).
T1 construct: expressed in transfected cells; host or cells: HEK-293
In words: Modulation of late sodium current (INaL), PatchXpress electrophysiology, HEK-293 cells expressing hNaV1.6. It is filed as cell-based. The following applies: HEK293, late current evoked by 300 nM ATX-II, read-out: NaV 1.6 Assay Data: percent inhibition of INaL at hNaV1.6. The protocol: Functional characterization of exemplary compounds to modulate INaL expressed by the NaV1.6 voltage-gated sodium channel was accomplished using the PatchXpress™ high throughput electrophysiology platform (Molecular Devices, Sunnyvale, Calif.). HEK-293 cells expressing recombinant, human NaV1.6 (hNaV1.6) were grown in DMEM/high-glucose Dulbecco's modified, 10% FBS, 2 mM sodium pyruvate, 10 mM HEPES and 400 μg/mL G418. Cells were grown to 50%-80% confluency prior to harvesting. Trypsinized cells were washed, allowed to recover for 1 hour and then resuspended in extracellular recording solution at a concentration of 1×10^6 cells/ml. The onboard liquid handling facility of the PatchXpress was used for dispensing cells and applying test compounds. NaV late currents were evoked by the application of 300 nM ATX-II. INaL was evoked by depolarizing pulses to 0 mV for 200 ms from a non-inactivating holding potential (e.g., −120 mV) at a frequency of 0.1 Hz. INaL amplitude and stability were determined by analyzing the mean current amplitude over the final 20 ms of the test pulse. Following steady state block with exemplary compounds (e.g., as described herein), a Na+ free solution containing an impermeant cation (e.g., Choline or NDMG) was added to confirm the identify of the sodium current. Percent steady-state inhibition of INaL was calculated as: [(INaL_compound)/(INaL_control)]*100, where INaL_compound and INaL_control represent INaL recorded in the presence or absence of compound, respectively.
T1 sequence (Q9UQD0 whole entry): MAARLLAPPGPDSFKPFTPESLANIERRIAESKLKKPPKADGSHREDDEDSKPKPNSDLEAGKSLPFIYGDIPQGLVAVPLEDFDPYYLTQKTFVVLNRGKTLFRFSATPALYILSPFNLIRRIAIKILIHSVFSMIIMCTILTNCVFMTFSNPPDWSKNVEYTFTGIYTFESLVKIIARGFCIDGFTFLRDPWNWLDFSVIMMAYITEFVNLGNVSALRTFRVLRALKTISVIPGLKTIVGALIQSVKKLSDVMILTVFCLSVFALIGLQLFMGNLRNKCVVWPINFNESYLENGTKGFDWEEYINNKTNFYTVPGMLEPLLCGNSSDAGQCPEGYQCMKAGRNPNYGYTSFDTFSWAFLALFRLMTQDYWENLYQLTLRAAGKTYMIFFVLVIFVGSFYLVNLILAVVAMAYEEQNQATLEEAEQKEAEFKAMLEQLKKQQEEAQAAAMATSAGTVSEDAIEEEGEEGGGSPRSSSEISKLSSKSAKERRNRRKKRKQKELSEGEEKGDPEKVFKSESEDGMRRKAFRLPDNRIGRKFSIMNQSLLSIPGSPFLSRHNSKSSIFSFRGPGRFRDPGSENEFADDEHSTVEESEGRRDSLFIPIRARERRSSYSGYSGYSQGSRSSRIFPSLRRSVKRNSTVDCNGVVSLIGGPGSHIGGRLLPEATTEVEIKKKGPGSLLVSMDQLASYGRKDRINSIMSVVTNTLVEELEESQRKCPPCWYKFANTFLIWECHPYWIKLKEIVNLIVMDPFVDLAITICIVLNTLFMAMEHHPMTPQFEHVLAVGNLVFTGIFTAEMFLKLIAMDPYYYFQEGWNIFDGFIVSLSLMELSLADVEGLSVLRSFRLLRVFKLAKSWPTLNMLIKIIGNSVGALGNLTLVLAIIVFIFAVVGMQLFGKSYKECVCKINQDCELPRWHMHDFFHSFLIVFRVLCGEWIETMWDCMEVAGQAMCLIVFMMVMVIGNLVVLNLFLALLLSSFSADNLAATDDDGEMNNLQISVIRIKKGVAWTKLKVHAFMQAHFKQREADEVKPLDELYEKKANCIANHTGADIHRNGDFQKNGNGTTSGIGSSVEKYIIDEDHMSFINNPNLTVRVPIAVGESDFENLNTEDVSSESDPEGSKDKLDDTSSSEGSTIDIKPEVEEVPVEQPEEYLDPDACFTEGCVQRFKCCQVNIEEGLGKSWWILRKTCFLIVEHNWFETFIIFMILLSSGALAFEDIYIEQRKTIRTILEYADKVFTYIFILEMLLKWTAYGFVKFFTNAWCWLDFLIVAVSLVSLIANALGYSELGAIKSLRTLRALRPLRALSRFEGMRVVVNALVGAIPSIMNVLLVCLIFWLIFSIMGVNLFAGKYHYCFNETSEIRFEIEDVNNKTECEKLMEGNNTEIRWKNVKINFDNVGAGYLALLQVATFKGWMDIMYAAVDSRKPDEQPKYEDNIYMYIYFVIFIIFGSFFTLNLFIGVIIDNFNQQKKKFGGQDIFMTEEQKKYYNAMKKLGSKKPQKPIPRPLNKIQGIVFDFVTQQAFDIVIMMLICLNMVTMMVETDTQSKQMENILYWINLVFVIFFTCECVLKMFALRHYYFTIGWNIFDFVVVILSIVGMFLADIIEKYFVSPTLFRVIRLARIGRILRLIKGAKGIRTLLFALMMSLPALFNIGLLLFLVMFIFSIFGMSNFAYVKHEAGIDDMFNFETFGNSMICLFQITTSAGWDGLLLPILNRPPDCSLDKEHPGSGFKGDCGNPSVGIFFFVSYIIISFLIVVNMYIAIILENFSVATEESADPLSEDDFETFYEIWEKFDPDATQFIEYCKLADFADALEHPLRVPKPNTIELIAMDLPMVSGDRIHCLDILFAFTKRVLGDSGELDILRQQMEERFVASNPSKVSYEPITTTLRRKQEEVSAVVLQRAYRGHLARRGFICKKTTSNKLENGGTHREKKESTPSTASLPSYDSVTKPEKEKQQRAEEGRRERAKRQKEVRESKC
Consider `COC(F)(F)c1nnc2cnc(-c3cnc(O[C@H](C)C(F)(F)F)c(F)c3)cn12` (racemic) [Compound 6A, 3-[difluoro(methoxy)methyl]-6-[5-fluoro-6-[rac-(1R)-2,2,2-trifluoro-1-methyl-ethoxy]-3-pyridyl]-[1,2,4]triazolo[4,3-a]pyrazine], for which the inhibition at 1 µM was greater than 70%.
To `Fc1cc(-c2ccc3nnc(C(F)(F)OCC4CC4)n3c2)cnc1OCC(F)(F)F` [Compound 1, 3-[cyclopropylmethoxy(difluoro)methyl]-6-[5-fluoro-6-(2,2,2-trifluoroethoxy)-3-pyridyl]-[1,2,4]triazolo[4,3-a]pyridine] belongs greater than 70%.
To `CC(C)COC(F)(F)c1nnc2ccc(-c3cnc(OCC(F)(F)F)c(F)c3)cn12` [Compound 2, 3-[difluoro(isobutoxy)methyl]-6-[5-fluoro-6-(2,2,2-trifluoroethoxy)-3-pyridyl]-[1,2,4]triazolo[4,3-a]pyridine] belongs greater than 70%.
Regarding `CC(C)OC(F)(F)c1nnc2ccc(-c3cnc(OCC(F)(F)F)c(F)c3)cn12` [Compound 4, 3-[difluoro(isopropoxy)methyl]-6-[5-fluoro-6-(2,2,2-trifluoroethoxy)-3-pyridyl]-[1,2,4]triazolo[4,3-a]pyridine], the inhibition at 1 µM is greater than 70%.
To `COC(F)(F)c1nnc2ccc(-c3cnc(OC(C)(C)C(F)(F)F)c(F)c3)nn12` [Compound 5, 3-[difluoro(methoxy)methyl]-6-[5-fluoro-6-(2,2,2-trifluoro-1,1-dimethyl-ethoxy)-3-pyridyl]-[1,2,4]triazolo[4,3-b]pyridazine] belongs greater than 70%.
For the molecule `COC(F)(F)c1nnc2ccc(-c3cnc(O[C@@H](C)C(F)(F)F)c(F)c3)cn12` [Compound 7, 3-[difluoro(methoxy)methyl]-6-[5-fluoro-6-[(1S)-2,2,2-trifluoro-1-methyl-ethoxy]-3-pyridyl]-[1,2,4]triazolo[4,3-a]pyridine], the inhibition at 1 µM is greater than 70%.
As for `COC(F)(F)c1nnc2ccc(-c3cnc(O[C@H](C)C(F)(F)F)c(F)c3)cn12` [Compound 8, 3-[difluoro(methoxy)methyl]-6-[5-fluoro-6-[(1R)-2,2,2-trifluoro-1-methyl-ethoxy]-3-pyridyl]-[1,2,4]triazolo[4,3-a]pyridine], the inhibition at 1 µM is greater than 70%.
The result for `Fc1cc(-c2cn3c(C(F)(F)OCC4CC4)nnc3cn2)cnc1OCC(F)(F)F` [Compound 9, 3-[cyclopropylmethoxy(difluoro)methyl]-6-[5-fluoro-6-(2,2,2-trifluoroethoxy)-3-pyridyl]-[1,2,4]triazolo[4,3-a]pyrazine] reads greater than 70%.
As for `COC(F)(F)c1nnc2ccc(-c3cnc(O[C@@H](C)C(F)(F)F)c(F)c3)nn12` [Compound 12, 3-[difluoro(methoxy)methyl]-6-[5-fluoro-6-[(1S)-2,2,2-trifluoro-1-methyl-ethoxy]-3-pyridyl]-[1,2,4]triazolo[4,3-b]pyridazine], the inhibition at 1 µM is greater than 70%.
In the case of `COC(F)(F)c1nnc2ccc(-c3cnc(O[C@H](C)C(F)(F)F)c(F)c3)nn12` [Compound 13, 3-[difluoro(methoxy)methyl]-6-[5-fluoro-6-[(1R)-2,2,2-trifluoro-1-methyl-ethoxy]-3-pyridyl]-[1,2,4]triazolo[4,3-b]pyridazine], the inhibition at 1 µM was greater than 70%.
To `Fc1cc(-c2ccc3nnc(C(F)(F)OCC4CC4)n3n2)cnc1OCC(F)(F)F` [Compound 14, 3-[cyclopropylmethoxy(difluoro)methyl]-6-[5-fluoro-6-(2,2,2-trifluoroethoxy)-3-pyridyl]-[1,2,4]triazolo[4,3-b]pyridazine] belongs greater than 70%; to `COC(F)(F)c1nnc2cnc(-c3cnc(OC(C)(C)C(F)(F)F)c(F)c3)cn12` [Compound 15, 3-[difluoro(methoxy)methyl]-6-[5-fluoro-6-(2,2,2-trifluoro-1,1-dimethyl-ethoxy)-3-pyridyl]-[1,2,4]triazolo[4,3-a]pyrazine], greater than 70%; to `COC(F)(F)c1nnc2ccc(-c3cnc(OC4(C(F)(F)F)CCC4)c(F)c3)nn12` [Compound 17, 3-[difluoro(methoxy)methyl]-6-[5-fluoro-6-[1-(trifluoromethyl)cyclobutoxy]-3-pyridyl]-[1,2,4]triazolo[4,3-b]pyridazine], greater than 70%.
The result for `COC(F)(F)c1nnc2ccc(-c3cnc(OC4(C(F)(F)F)CCC4)c(F)c3)cn12` [Compound 18, 3-[difluoro(methoxy)methyl]-6-[5-fluoro-6-[1-(trifluoromethyl)cyclobutoxy]-3-pyridyl]-[1,2,4]triazolo[4,3-a]pyridine] reads greater than 70%; that for `C[C@H](Oc1ncc(-c2ccc3nnc(C(F)(F)OCC4CC4)n3c2)cc1F)C(F)(F)F` [Compound 19, 3-[cyclopropylmethoxy(difluoro)methyl]-6-[5-fluoro-6-[(1S)-2,2,2-trifluoro-1-methyl-ethoxy]-3-pyridyl]-[1,2,4]triazolo[4,3-a]pyridine], greater than 70%.
To `CC(C)OC(F)(F)c1nnc2ccc(-c3cnc(O[C@@H](C)C(F)(F)F)c(F)c3)cn12` [Compound 20, 3-[difluoro(isopropoxy)methyl]-6-[5-fluoro-6-[(1S)-2,2,2-trifluoro-1-methyl-ethoxy]-3-pyridyl]-[1,2,4]triazolo[4,3-a]pyridine] belongs greater than 70%; to `CC(C)OC(F)(F)c1nnc2ccc(-c3cnc(O[C@H](C)C(F)(F)F)c(F)c3)cn12` [Compound 21, 3-[difluoro(isopropoxy)methyl]-6-[5-fluoro-6-[(1R)-2,2,2-trifluoro-1-methyl-ethoxy]-3-pyridyl]-[1,2,4]triazolo[4,3-a]pyridine], greater than 70%; to `CC(C)COC(F)(F)c1nnc2ccc(-c3cnc(O[C@@H](C)C(F)(F)F)c(F)c3)cn12` [Compound 22, 3-[difluoro(isobutoxy)methyl]-6-[5-fluoro-6-[(1S)-2,2,2-trifluoro-1-methyl-ethoxy]-3-pyridyl]-[1,2,4]triazolo[4,3-a]pyridine], greater than 70%.
Turning to `CC(C)COC(F)(F)c1nnc2ccc(-c3cnc(O[C@H](C)C(F)(F)F)c(F)c3)cn12` [Compound 23, 3-[difluoro(isobutoxy)methyl]-6-[5-fluoro-6-[(1R)-2,2,2-trifluoro-1-methyl-ethoxy]-3-pyridyl]-[1,2,4]triazolo[4,3-a]pyridine], the inhibition at 1 µM is greater than 70%.
On to `COC(F)(F)c1nnc2ccc(-c3cnc(OC(C)(C)C(F)(F)F)c(F)c3)cn12` [Compound 24, 3-[difluoro(methoxy)methyl]-6-[5-fluoro-6-(2,2,2-trifluoro-1,1-dimethyl-ethoxy)-3-pyridyl]-[1,2,4]triazolo[4,3-a]pyridine], for which the inhibition at 1 µM is greater than 70%.
To `C[C@@H](Oc1ncc(-c2ccc3nnc(C(F)(F)OCC4CC4)n3c2)cc1F)C(F)(F)F` [Compound 25, 3-[cyclopropylmethoxy(difluoro)methyl]-6-[5-fluoro-6-[(1R)-2,2,2-trifluoro-1-methyl-ethoxy]-3-pyridyl]-[1,2,4]triazolo[4,3-a]pyridine] belongs greater than 70%; to `CCOC(F)(F)c1nnc2cnc(-c3cnc(O[C@H](C)C(F)(F)F)c(F)c3)cn12` [Compound 26, 3-[ethoxy(difluoro)methyl]-6-[5-fluoro-6-[(1R)-2,2,2-trifluoro-1-methyl-ethoxy]-3-pyridyl]-[1,2,4]triazolo[4,3-a]pyrazine], greater than 70%; to `COCc1nnc2ccc(-c3cnc(OC(C)(C)C(F)(F)F)c(F)c3)nn12` [Compound 27, 6-[5-fluoro-6-(2,2,2-trifluoro-1,1-dimethyl-ethoxy)-3-pyridyl]-3-(methoxymethyl)-[1,2,4]triazolo[4,3-b]pyridazine], greater than 70%.
Take `COCc1nnc2ccc(-c3cnc(OC(C)(C)C(F)(F)F)c(F)c3)cn12` [Compound 28, 6-[5-fluoro-6-(2,2,2-trifluoro-1,1-dimethyl-ethoxy)-3-pyridyl]-3-(methoxymethyl)-[1,2,4]triazolo[4,3-a]pyridine]: the inhibition at 1 µM is greater than 70%.
Take `COCc1nnc2ccc(-c3cnc(OCC(F)(F)F)c(F)c3)cn12` [Compound 29, 6-[5-fluoro-6-(2,2,2-trifluoroethoxy)-3-pyridyl]-3-(methoxymethyl)-[1,2,4]triazolo[4,3-a]pyridine]: the inhibition at 1 µM is less than 30%.
As for `COC(F)(F)c1nnc2ccc(-c3cnc(OCC(F)(F)F)c(F)c3)cn12` [Compound 30, 3-[difluoro(methoxy)methyl]-6-[5-fluoro-6-(2,2,2-trifluoroethoxy)-3-pyridyl]-[1,2,4]triazolo[4,3-a]pyridine], the inhibition at 1 µM is greater than 70%.
As for `COCc1nnc2cnc(-c3cnc(O[C@H](C)C(F)(F)F)c(F)c3)cn12` [Compound 31, 6-[5-fluoro-6-[(1R)-2,2,2-trifluoro-1-methyl-ethoxy]-3-pyridyl]-3-(methoxymethyl)-[1,2,4]triazolo[4,3-a]pyrazine], the inhibition at 1 µM was less than 30%.

What is called inhibition is how much of the control response was suppressed.

For the origin of these results see US11731976B2, “3-(ethoxydifluoromethyl)-6-(5-fluoro-6-(2,2,2-trifluoroethoxy)pyridin-3-yl)-[1,2,4]triazolo[4,3-a]pyridine as an ion channel modulator” (Praxis Precision Medicines, Inc., priority 2018, dated 2023).
